This test has as its target T1, rat brain N-type calcium channel subunits (α1B+α2δ+β1b cDNA subunits) (Rattus norvegicus, UniProt Q02294).
T1 construct: expressed in transfected cells; host or cells: HEK 293
Kind of test: N-type calcium channel block, whole cell patch clamp in transfected HEK 293 cells. To be noted: holding potential −80 mV to +10 mV. Type of test: cell-based. As to the method: N-type calcium channel blocking activity was assayed in human embryonic kidney cells, HEK 293, stably transfected with the rat brain N-type calcium channel subunits (α1B+α2δ+β1b cDNA subunits). Alternatively, N-type calcium channels (α1B+α2δ+β1b cDNA subunits), L-type channels (α1C+α2δ+β1b cDNA subunits) and P/Q-type channels (α1A+α2δ+β1b cDNA subunits) were transiently expressed in HEK 293 cells. Briefly, cells were cultured in Dulbecco's modified eagle medium (DMEM) supplemented with 10% fetal bovine serum, 200 U/ml penicillin and 0.2 mg/ml streptomycin at 37° C. with 5% CO2. At 85% confluency cells were split with 0.25% trypsin/1 mM EDTA and plated at 10% confluency on glass coverslips. At 12 hours the medium was replaced and the cells transiently transfected using a standard calcium phosphate protocol and the appropriate calcium channel cDNA's. Fresh DMEM was supplied and the cells transferred to 28° C./5% CO2. Cells were incubated for 1 to 2 days prior to whole cell recording.
Whole cell patch clamp experiments were performed using an Axopatch 200B amplifier (Axon Instruments, Burlingame, Calif.) linked to a personal computer equipped with pCLAMP software. The external and internal recording solutions contained, respectively, 5 mM BaCl2, 10 mM MgCl2, 10 mM HEPES, 40 mM TEACl, 10 mM glucose, 87.5 mM CsCl (pH 7.2) and 108 mM CsMS, 4 mM MgCl2, 9 mM EGTA, 9 mM HEPES (pH 7.2). Currents were typically elicited from a holding potential of −80 mV to +10 mV using Clampex software (Axon Instruments). Typically, currents were first elicited with low frequency stimulation (0.067 Hz) and allowed to stabilize prior to application of the compounds. The compounds were then applied during the low frequency pulse trains for two to three minutes to assess tonic block, and subsequently the pulse frequency was increased to 0.2 Hz to assess frequency dependent block. Data were analyzed using Clampfit (Axon Instruments) and SigmaPlot 4.0 (Jandel Scientific).
In general terms: The patch-clamp technique gives a direct electrical read-out from membranes.

Where [1] appears, read: low frequency stimulation 0.067 Hz (tonic block), 5 mM BaCl2, read-out: IC50 @ 0.067 Hz.
Setting [2] is: pulse frequency 0.2 Hz (frequency dependent block), 5 mM BaCl2, read-out: IC50 @ 0.2 Hz.

SMILES strings stand for the structures. Like-named read-outs stand apart in the source and are kept apart here.

One may read the IC50 as the concentration that gives 50% inhibition.

T1 sequence (Q02294 whole entry): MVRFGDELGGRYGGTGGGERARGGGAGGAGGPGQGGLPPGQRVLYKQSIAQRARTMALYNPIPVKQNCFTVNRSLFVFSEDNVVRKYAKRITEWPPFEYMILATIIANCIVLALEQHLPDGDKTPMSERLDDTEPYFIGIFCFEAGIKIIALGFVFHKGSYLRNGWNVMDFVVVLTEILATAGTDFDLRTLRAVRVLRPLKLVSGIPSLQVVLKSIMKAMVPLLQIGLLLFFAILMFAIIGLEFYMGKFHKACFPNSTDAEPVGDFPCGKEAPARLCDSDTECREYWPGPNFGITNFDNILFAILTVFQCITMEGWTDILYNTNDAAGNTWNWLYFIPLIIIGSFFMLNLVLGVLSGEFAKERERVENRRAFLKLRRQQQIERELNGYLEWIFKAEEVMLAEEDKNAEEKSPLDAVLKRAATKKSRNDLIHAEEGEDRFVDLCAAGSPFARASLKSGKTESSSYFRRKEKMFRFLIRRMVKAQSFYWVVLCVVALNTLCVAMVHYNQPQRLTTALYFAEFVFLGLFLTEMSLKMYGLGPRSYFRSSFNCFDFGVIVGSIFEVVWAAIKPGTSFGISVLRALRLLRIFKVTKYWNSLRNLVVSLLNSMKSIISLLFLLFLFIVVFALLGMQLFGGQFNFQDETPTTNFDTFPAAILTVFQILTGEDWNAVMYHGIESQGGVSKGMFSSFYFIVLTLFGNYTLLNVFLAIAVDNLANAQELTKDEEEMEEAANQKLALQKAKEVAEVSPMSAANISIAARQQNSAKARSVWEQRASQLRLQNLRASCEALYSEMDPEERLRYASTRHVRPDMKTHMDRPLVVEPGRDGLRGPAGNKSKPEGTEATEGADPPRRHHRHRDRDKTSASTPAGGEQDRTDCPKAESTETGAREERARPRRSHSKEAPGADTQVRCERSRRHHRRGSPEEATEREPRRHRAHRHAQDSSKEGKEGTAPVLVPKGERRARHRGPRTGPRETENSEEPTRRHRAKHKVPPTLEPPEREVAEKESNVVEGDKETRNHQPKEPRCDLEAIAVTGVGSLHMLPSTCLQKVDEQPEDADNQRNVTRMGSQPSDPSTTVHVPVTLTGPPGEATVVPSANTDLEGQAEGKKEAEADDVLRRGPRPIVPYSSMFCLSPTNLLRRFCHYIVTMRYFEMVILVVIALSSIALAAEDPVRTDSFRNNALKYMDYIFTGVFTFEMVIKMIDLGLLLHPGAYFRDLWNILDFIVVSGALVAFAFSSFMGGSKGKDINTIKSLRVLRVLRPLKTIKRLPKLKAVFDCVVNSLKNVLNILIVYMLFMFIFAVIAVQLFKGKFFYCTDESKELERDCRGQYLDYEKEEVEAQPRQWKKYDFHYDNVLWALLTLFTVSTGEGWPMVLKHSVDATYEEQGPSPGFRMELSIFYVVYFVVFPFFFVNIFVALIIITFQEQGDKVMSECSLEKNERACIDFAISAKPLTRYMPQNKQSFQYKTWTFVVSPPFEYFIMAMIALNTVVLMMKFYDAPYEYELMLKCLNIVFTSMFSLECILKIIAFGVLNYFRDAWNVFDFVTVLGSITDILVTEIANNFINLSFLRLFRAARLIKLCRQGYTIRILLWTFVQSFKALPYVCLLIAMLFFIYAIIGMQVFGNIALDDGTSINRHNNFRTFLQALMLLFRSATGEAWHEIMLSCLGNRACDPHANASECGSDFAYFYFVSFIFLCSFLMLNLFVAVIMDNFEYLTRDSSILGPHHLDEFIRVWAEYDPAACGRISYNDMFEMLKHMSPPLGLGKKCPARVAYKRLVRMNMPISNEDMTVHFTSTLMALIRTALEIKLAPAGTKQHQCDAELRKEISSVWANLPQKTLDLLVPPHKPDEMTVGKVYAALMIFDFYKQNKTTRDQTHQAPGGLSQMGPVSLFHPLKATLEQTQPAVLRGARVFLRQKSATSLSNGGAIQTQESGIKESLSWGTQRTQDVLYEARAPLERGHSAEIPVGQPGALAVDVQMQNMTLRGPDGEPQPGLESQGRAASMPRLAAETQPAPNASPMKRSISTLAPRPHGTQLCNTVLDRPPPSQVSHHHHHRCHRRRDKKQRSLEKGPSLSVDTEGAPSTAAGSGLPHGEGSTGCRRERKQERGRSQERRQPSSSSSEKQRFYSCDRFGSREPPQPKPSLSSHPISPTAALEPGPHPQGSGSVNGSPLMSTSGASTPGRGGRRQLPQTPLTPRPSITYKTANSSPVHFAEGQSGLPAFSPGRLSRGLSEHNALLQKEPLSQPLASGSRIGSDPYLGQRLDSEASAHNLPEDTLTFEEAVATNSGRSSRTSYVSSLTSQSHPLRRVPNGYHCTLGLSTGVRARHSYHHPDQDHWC
T1 sequence (P54290 25-944 partner limits assumed): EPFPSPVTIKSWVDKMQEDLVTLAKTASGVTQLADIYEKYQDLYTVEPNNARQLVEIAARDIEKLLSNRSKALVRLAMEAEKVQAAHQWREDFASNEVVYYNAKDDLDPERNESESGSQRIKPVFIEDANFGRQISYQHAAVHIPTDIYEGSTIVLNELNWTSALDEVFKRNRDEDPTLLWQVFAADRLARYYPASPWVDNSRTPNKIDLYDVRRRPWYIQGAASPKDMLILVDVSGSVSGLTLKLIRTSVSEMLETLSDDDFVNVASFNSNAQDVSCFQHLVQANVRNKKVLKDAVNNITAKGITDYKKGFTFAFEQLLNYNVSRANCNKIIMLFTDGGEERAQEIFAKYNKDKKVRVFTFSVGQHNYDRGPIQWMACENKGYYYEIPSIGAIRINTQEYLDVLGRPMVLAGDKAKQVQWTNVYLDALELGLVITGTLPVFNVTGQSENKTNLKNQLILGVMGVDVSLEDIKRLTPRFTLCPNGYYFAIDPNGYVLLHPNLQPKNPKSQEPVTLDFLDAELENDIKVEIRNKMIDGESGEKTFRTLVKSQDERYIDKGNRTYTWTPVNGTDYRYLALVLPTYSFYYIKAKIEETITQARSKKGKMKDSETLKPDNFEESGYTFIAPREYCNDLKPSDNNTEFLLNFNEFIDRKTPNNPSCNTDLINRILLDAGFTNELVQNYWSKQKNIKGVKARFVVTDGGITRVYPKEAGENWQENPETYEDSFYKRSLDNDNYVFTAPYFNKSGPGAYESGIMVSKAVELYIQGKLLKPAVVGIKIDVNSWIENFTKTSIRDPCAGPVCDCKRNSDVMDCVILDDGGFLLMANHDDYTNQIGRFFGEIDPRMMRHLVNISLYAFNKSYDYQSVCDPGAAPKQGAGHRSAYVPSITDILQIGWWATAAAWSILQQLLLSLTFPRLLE
T1 sequence (P54290 945-1091 partner limits assumed): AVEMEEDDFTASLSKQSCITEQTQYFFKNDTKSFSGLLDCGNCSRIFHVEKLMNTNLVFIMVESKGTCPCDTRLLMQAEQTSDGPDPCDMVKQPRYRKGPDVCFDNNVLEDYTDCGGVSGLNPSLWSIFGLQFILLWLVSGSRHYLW
T1 sequence (P54283 whole entry partner): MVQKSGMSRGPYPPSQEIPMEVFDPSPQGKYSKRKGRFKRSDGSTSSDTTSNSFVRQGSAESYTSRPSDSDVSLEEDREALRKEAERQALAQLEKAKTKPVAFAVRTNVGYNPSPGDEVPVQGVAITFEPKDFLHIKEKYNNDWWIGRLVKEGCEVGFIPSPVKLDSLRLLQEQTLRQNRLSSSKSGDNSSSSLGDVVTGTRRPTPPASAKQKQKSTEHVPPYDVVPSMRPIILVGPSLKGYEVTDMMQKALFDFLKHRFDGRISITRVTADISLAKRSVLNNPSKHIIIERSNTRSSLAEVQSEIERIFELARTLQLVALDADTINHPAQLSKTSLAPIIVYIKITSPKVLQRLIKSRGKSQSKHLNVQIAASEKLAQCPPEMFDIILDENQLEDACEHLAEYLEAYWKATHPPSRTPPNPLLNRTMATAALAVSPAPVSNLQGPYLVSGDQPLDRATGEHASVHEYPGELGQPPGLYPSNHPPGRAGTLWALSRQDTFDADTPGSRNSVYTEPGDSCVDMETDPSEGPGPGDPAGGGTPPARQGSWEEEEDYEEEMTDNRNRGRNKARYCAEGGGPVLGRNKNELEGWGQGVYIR

For `O=C(NC(c1ccccc1)c1ccccc1)N1CCC(CN2CCCCC2)CC1` [Compound 41, N-benzhydryl-4-(piperidin-1-ylmethyl)piperidine-1-carboxamide], the IC50 under setting [1] was determined as 5210 nM and the IC50 under setting [2] amounted to 3490 nM.
In the case of `Cc1ccccc1C(CC(=O)N1CCC(CN2CCCCC2)CC1)c1ccccc1C` [Compound 42, 1-(4-(piperidin-1-ylmethyl)piperidin-1-yl)-3,3-di-o-tolylpropan-1-one], the IC50 by setting is: under setting [1], 6590 nM; under setting [2], 2440 nM.
For `O=C(CNC(c1ccccc1)c1ccccc1)N1CCC(CN2CCCCC2)CC1` [Compound 43, 2-(benzhydrylamino)-1-(4-(piperidin-1-ylmethyl)piperidin-1-yl)ethanone] the same measures were 5320 nM and 5260 nM.
Taken in the same sequence, the figures for `O=C(C[S+]([O-])C(c1ccccc1)c1ccccc1)N1CCC(CN2CCCCC2)CC1` (stereo not drawn) [Compound 44, 2-(benzhydrylsulfinyl)-1-(4-(piperidin-1-ylmethyl)piperidin-1-yl)ethanone] were 8400 nM and 4100 nM.
Taken in the same sequence, the figures for `Cc1ccccc1C(CC(=O)N1CCC(CN2CCCCC2)(c2ccccc2)CC1)c1ccccc1C` [Compound 46, 1-(4-phenyl-4-(piperidin-1-ylmethyl)piperidin-1-yl)-3,3-di-o-tolylpropan-1-one] were 320 nM and 250 nM.
Take `O=C(C[S+]([O-])C(c1ccccc1)c1ccccc1)N1CCC(CN2CCCCC2)(c2ccccc2)CC1` (stereo not drawn) [Compound 48, 2-(benzhydrylsulfinyl)-1-(4-phenyl-4-(piperidin-1-ylmethyl)piperidin-1-yl)ethanone]: the half-inhibitory concentration (IC50) by setting is: under setting [1], 1250 nM; under setting [2], 930 nM.
Taken in the same sequence, the figures for `O=C(CC(c1ccccc1)c1ccccc1)N1CCC(C(c2ccccc2)N2CCCCC2)CC1` (stereo not drawn) [Compound 50, 3,3-diphenyl-1-(4-(phenyl(piperidin-1-yl)methyl)piperidin-1-yl)propan-1-one] were 2300 nM and 1500 nM.
Taken in the same sequence, the figures for `O=C(COC(c1ccccc1)c1ccccc1)N1CCC(C(c2ccccc2)N2CCCCC2)CC1` (stereo not drawn) [Compound 52] were 630 nM and 450 nM.
Taken in the same sequence, the figures for `CN1CCN(C(c2ccccc2)C2CCN(C(=O)CC(c3ccccc3)c3ccccc3)CC2)CC1` (stereo not drawn) [Compound 54, 1-(4-((4-methylpiperazin-1-yl)(phenyl)methyl)piperidin-1-yl)-3,3-diphenylpropan-1-one] were 2360 nM and 1320 nM.
As for `CC1CN(C(c2ccccc2)C2CCN(C(=O)CC(c3ccccc3)c3ccccc3)CC2)CC(C)N1` (stereo not drawn) [Compound 55, 1-(4-((3,5-dimethylpiperazin-1-yl)(phenyl)methyl)piperidin-1-yl)-3,3-diphenylpropan-1-one], the IC50 reads like this: under setting [1], 880 nM; under setting [2], 420 nM.
Take `Cc1ccccc1C(CC(=O)N1CCC(C(c2ccccc2)N2CCN(C)CC2)CC1)c1ccccc1C` (stereo not drawn) [Compound 56, 1-(4-((4-methylpiperazin-1-yl)(phenyl)methyl)piperidin-1-yl)-3,3-di-o-tolylpropan-1-one]: the 50% inhibitory concentration (IC50) reads like this: under setting [1], 270 nM; under setting [2], 150 nM.
Regarding `Cc1ccccc1C(CC(=O)N1CCC(C(c2ccccc2)N2CC(C)NC(C)C2)CC1)c1ccccc1C` (stereo not drawn) [Compound 57, 1-(4-((3,5-dimethylpiperazin-1-yl)(phenyl)methyl)piperidin-1-yl)-3,3-di-o-tolylpropan-1-one], the IC50 turned out to be 930 nM under setting [1] and 440 nM under setting [2].
As to `O=C(NC(c1cccc(F)c1)c1cccc(F)c1)N1CCC(CN2CCCCC2)CC1` [Compound 60], the IC50 under setting [1] was found to be 5590 nM.
As to `CC(C)(C)N1CCN(CC2CCN(C(=O)CC(c3ccccc3)c3ccccc3)CC2)CC1` [Compound 66, 1-(4-((4-tert-butylpiperazin-1-yl)methyl)piperidin-1-yl)-3,3-diphenylpropan-1-one], the 50% inhibitory concentration (IC50) reads like this: under setting [1], 2180 nM; under setting [2], 1230 nM.

Source of the values: US20100168103A1, “DIARYL PIPERIDINE COMPOUNDS AS CALCIUM CHANNEL BLOCKERS” (NEUROMED PHARMACEUTICALS LTD., priority 2006, published 2010).
